# Measurements taken from US20090131431A1, “Pyrazolo[3,4-b]pyridine compounds, and their use as a PDE4 inhibitors” (priority 2005, published 2009).
# Molecular target: T1, PDE4B (human recombinant) (Homo sapiens, UniProt Q07343)
# T1 construct: made in house
# Test: Inhibition of PDE4B activity: SPA and/or Fluorescence Polarisation (FP) assay
# Assay type: biochemical
# Settings: one reading (n=1) or average of 2 or more readings, read-out: PDE4B pIC50 (±about 0.5) (converted)
# Outline: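 Human recombinant PDE4B activity measured by SPA with [3H]cAMP at about 10 nM, 1 h at ambient temperature, enzyme set for ≤20% substrate hydrolysis, or by IMAP FP with Fl-cAMP at about 40 nM, 40 min at ambient temperature under linear conditions. Inhibition curves fitted; values reported as pIC50.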
# T1 sequence (Q07343 1-564 isoform Q07343-2): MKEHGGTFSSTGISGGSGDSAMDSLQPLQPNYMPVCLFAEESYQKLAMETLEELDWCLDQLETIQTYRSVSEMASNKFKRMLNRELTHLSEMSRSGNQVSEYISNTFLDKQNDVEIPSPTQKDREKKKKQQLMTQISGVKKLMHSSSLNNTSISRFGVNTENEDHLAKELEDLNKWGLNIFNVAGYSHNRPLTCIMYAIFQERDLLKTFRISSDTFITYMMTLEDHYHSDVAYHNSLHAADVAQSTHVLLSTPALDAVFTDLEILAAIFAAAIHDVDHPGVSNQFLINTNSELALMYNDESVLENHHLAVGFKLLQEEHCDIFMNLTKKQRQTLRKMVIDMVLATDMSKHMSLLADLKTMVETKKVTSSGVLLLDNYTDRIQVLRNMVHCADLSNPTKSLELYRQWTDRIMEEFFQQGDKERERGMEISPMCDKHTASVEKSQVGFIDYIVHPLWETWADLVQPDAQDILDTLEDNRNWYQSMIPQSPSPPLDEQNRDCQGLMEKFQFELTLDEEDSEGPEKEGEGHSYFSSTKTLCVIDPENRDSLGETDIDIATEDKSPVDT
row,SMILES,IC50 [nM]
1,"CCc1nc2c(cnn2CC)c(NC2CCOCC2)c1CNC(=O)c1ccc(C(C)(C)C)cc1O [Example 256, N-{[1,6-diethyl-4-(tetrahydro-2H-pyran-4-ylamino)-1H-pyrazolo[3,4-b]pyridin-5-yl]methyl}-4-(1,1-dimethylethyl)-2-hydroxybenzamide]",0.01 to 0.1
2,"CCc1nc2c(cnn2CC)c(NC2CCOCC2)c1CNC(=O)c1ccc2c(=O)[nH][nH]c2c1 [Example 257, N-{[1,6-diethyl-4-(tetrahydro-2H-pyran-4-ylamino)-1H-pyrazolo[3,4-b]pyridin-5-yl]methyl}-3-oxo-2,3-dihydro-1H-indazole-6-carboxamide]",0.01 to 0.1
3,"CCc1nc2c(cnn2CC)c(NC2CCOCC2)c1CNC(=O)c1ccc2c(c1)CCCS2(=O)=O [Example 258, N-{[1,6-diethyl-4-(tetrahydro-2H-pyran-4-ylamino)-1H-pyrazolo[3,4-b]pyridin-5-yl]methyl}-3,4-dihydro-2H-1-benzothiopyran-6-carboxamide 1,1-dioxide]",0.01 to 0.1
4,"CCn1ncc2c(NC3CCN(C(N)=O)CC3)c(CNC(=O)c3ccc(S(C)(=O)=O)cc3)c(C)nc21 [Example 259, 4-({1-ethyl-6-methyl-5-[({[4-(methylsulfonyl)phenyl]carbonyl}amino)methyl]-1H-pyrazolo[3,4-b]pyridin-4-yl}amino)-1-piperidinecarboxamide]",0.126 to 1
5,"CCn1ncc2c(NC3CCN(C(N)=O)CC3)c(CNC(=O)c3ccccc3O)c(C)nc21 [Example 260, 4-{[1-ethyl-5-({[(2-hydroxyphenyl)carbonyl]amino}methyl)-6-methyl-1H-pyrazolo[3,4-b]pyridin-4-yl]amino}-1-piperidinecarboxamide]",0.01 to 0.1
6,"CCn1ncc2c(NC3CCN(C(N)=O)CC3)c(CNC(=O)c3ccc(NC(C)=O)cc3O)c(C)nc21 [Example 261, 4-({5-[({[4-(acetylamino)-2-hydroxyphenyl]carbonyl}amino)methyl]-1-ethyl-6-methyl-1H-pyrazolo[3,4-b]pyridin-4-yl}amino)-1-piperidinecarboxamide]",0.01 to 0.1
7,"CCn1ncc2c(NC3CCN(C(N)=O)CC3)c(CNC(=O)c3ccc(C(C)(C)C)cc3)c(C)nc21 [Example 262, 4-({5-[({[4-(1,1-dimethylethyl)phenyl]carbonyl}amino)methyl]-1-ethyl-6-methyl-1H-pyrazolo[3,4-b]pyridin-4-yl}amino)-1-piperidinecarboxamide]",0.01 to 0.1
8,"CCn1ncc2c(NC3CCN(C(N)=O)CC3)c(CNC(=O)c3ccc(C(C)C)cc3)c(C)nc21 [Example 263, 4-({1-ethyl-6-methyl-5-[({[4-(1-methylethyl)phenyl]carbonyl}amino)methyl]-1H-pyrazolo[3,4-b]pyridin-4-yl}amino)-1-piperidinecarboxamide]",0.01 to 0.1
9,"CCn1ncc2c(NC3CCN(C(N)=O)CC3)c(CNC(=O)c3cccc(NC(C)=O)c3)c(C)nc21 [Example 264, 4-({5-[({[3-(acetylamino)phenyl]carbonyl}amino)methyl]-1-ethyl-6-methyl-1H-pyrazolo[3,4-b]pyridin-4-yl}amino)-1-piperidinecarboxamide]",0.01 to 0.1
10,"CCn1ncc2c(NC3CCN(C(N)=O)CC3)c(CNC(=O)c3ccc(C)cc3O)c(C)nc21 [Example 265, 4-{[1-ethyl-5-({[(2-hydroxy-4-methylphenyl)carbonyl]amino}methyl)-6-methyl-1H-pyrazolo[3,4-b]pyridin-4-yl]amino}-1-piperidinecarboxamide]",0.01 to 0.1
11,"CCn1ncc2c(NC3CCN(C(N)=O)CC3)c(CNC(=O)c3ccccc3F)c(C)nc21 [Example 266, 4-{[1-ethyl-5-({[(2-fluorophenyl)carbonyl]amino}methyl)-6-methyl-1H-pyrazolo[3,4-b]pyridin-4-yl]amino}-1-piperidinecarboxamide]",0.126 to 1

# Next, values leading:
row,IC50 [nM],SMILES
1,0.01 to 0.1,"CCn1ncc2c(NC3CCN(C(N)=O)CC3)c(CNC(=O)c3cccc(N4CCCC4=O)c3)c(C)nc21 [Example 267, 4-({1-ethyl-6-methyl-5-[({[3-(2-oxo-1-pyrrolidinyl)phenyl]carbonyl}amino)methyl]-1H-pyrazolo[3,4-b]pyridin-4-yl}amino)-1-piperidinecarboxamide]"
2,0.01 to 0.1,"CCn1ncc2c(NC3CCN(C(N)=O)CC3)c(CNC(=O)c3ccc(C(=O)NC)cc3)c(C)nc21 [Example 268, N-[(4-{[1-(aminocarbonyl)-4-piperidinyl]amino}-1-ethyl-6-methyl-1H-pyrazolo[3,4-b]pyridin-5-yl)methyl]-N′-methyl-1,4-benzenedicarboxamide]"
3,0.01 to 0.1,"CCn1ncc2c(NC3CCN(C(N)=O)CC3)c(CNC(=O)c3ccc(N4CCCCC4)cc3)c(C)nc21 [Example 269, 4-({1-ethyl-6-methyl-5-[({[4-(1-piperidinyl)phenyl]carbonyl}amino)methyl]-1H-pyrazolo[3,4-b]pyridin-4-yl}amino)-1-piperidinecarboxamide]"
4,0.01 to 0.1,"CCn1ncc2c(NC3CCN(C(N)=O)CC3)c(CNC(=O)c3cccc4c3OCC4)c(C)nc21 [Example 270, 4-[(5-{[(2,3-dihydro-1-benzofuran-7-ylcarbonyl)amino]methyl}-1-ethyl-6-methyl-1H-pyrazolo[3,4-b]pyridin-4-yl)amino]-1-piperidinecarboxamide]"
5,0.01 to 0.1,"CCn1ncc2c(NC3CCN(C(N)=O)CC3)c(CNC(=O)c3ccc4c(c3)CCC4)c(C)nc21 [Example 271, 4-[(5-{[(2,3-dihydro-1H-inden-5-ylcarbonyl)amino]methyl}-1-ethyl-6-methyl-1H-pyrazolo[3,4-b]pyridin-4-yl)amino]-1-piperidinecarboxamide]"
6,0.01 to 0.1,"CCn1ncc2c(NC3CCN(C(N)=O)CC3)c(CNC(=O)c3ccc(C(C)(C)C)cc3O)c(C)nc21 [Example 272, 4-({5-[({(4-(1,1-dimethylethyl)-2-hydroxyphenyl]carbonyl}amino)methyl}-1-ethyl-6-methyl-1H-pyrazolo[3,4-b]pyridin-4-yl)amino}-1-piperidinecarboxamide]"
7,0.01 to 0.1,"CCn1ncc2c(NC3CCN(C(N)=O)CC3)c(CNC(=O)c3ccc(C4CCCC4)cc3)c(C)nc21 [Example 273, 4-{[5-({[(4-cyclopentylphenyl)carbonyl]amino}methyl)-1-ethyl-6-methyl-1H-pyrazolo[3,4-b]pyridin-4-yl]amino}-1-piperidinecarboxamide]"
8,0.01 to 0.1,"CCn1ncc2c(NC3CCN(C(N)=O)CC3)c(CNC(=O)c3ccc(C)c4c3OCC4)c(C)nc21 [Example 274, 4-{[1-ethyl-6-methyl-5-({[(4-methyl-2,3-dihydro-1-benzofuran-7-yl)carbonyl]amino}methyl)-1H-pyrazolo[3,4-b]pyridin-4-yl]amino}-1-piperidinecarboxamide]"
9,0.01 to 0.1,"CCn1ncc2c(NC3CCOCC3)c(CNC(=O)c3ccccc3O)c(C)nc21 [Example 275, N-{[1-ethyl-6-methyl-4-(tetrahydro-2H-pyran-4-ylamino)-1H-pyrazolo[3,4-b]pyridin-5-yl]methyl}-2-hydroxybenzamide]"
10,0.01 to 0.1,"CCn1ncc2c(NC3CCOCC3)c(CNC(=O)c3ccc(NC(C)=O)cc3O)c(C)nc21 [Example 276, 4-(acetylamino)-N-{[1-ethyl-6-methyl-4-(tetrahydro-2H-pyran-4-ylamino)-1H-pyrazolo[3,4-b]pyridin-5-yl]methyl}-2-hydroxybenzamide]"
